Test results: patent US20050239733A1, “Sequence requirements for inhibitory oligonucleotides” (Coley Pharmaceutical GmbH, priority 2003, published 2005)

Experiments:
human PBMC = assay: Inhibition of CpG ODN 2395-induced IFN-α secretion by human PBMC; format: cell-based; conditions: FIG. 9; 0.5 μM CpG ODN 2395, increasing ODN, 24 h
Protocol: In this set of experiments human PBMC were isolated from human blood and incubated in the presence of 0.5 μM CpG ODN 2395 ([…]; SEQ ID NO:30) and increasing concentrations of inhibitory ODN. CpG ODN 2395 induces high amounts of IFN-α in human PBMC through TLR9-mediated signaling. The secreted amount of IFN-α induced by CpG ODN 2395 after 24 h was set to 100%.

human TLR8 = biological target: T1, human TLR8 (Homo sapiens, UniProt Q9NR97); assay: Inhibition of R-848-mediated NF-κB-luciferase activation in hTLR8-LUC-293 cells; format: cell-based; conditions: general statement 'found according to the present invention'; conditions not given
T1 construct: expressed in transfected cells
T1 sequence (Q9NR97 27-1041): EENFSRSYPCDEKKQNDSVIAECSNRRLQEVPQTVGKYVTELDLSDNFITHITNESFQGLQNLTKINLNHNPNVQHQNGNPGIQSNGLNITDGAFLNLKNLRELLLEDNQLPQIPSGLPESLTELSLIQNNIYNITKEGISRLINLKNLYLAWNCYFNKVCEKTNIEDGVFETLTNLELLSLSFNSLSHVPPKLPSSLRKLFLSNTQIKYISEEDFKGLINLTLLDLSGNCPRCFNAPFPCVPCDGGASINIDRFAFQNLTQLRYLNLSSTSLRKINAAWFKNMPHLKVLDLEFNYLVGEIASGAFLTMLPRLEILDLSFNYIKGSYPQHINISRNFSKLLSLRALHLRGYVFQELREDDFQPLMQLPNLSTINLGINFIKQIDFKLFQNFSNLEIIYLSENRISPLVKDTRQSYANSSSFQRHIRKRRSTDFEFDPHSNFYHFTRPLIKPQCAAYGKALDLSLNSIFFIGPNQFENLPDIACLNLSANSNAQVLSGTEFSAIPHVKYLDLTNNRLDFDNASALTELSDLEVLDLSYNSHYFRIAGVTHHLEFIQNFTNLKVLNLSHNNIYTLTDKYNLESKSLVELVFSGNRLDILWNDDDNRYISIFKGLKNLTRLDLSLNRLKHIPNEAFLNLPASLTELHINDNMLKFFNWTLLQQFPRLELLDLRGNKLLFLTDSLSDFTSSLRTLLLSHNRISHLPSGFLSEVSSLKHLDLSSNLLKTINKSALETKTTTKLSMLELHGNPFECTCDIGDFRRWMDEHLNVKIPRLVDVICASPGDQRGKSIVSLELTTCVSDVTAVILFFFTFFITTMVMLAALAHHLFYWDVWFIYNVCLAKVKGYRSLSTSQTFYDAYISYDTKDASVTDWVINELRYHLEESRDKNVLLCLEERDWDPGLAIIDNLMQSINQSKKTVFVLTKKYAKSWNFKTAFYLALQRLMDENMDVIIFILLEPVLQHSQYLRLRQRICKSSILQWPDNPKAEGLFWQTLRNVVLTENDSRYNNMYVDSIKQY
Protocol: The previous examples describe the ability of certain inhibitory ODN to inhibit activation of signal transduction mediated by human Toll-like receptor 9 (hTLR9). […] The assay system involved stimulating hTLR8-LUC-293 cells with the TLR8 ligand, R-848 (Resiquimod; Jurk M et al. (2002) Nat Immunol 3:499) in the presence and absence of ODN and comparing the induction of luciferase activity in the absence of ODN to luciferase activity in the presence of ODN.
Cells were assayed for luciferase activity 16 h later. Results were calculated as fold induction above medium background.
Luciferase activity was assayed after 16 h.
hTLR8-LUC-293 cells were incubated with 50 μM R-848 in the presence of increasing concentrations of the following ODN: ODN 2088, D13GT (whererin D is dSpacer), GTN13, N6GTN7, random 15-mer N15, N13GT, and the dinucleotide GT. Luciferase activity was assayed after 16 h. Luciferase activity of R-848 without any ODN was set to 100% (without correction for medium background, i.e. background activity of medium remained at approx. 17%).
Luciferase activity was assayed after 16 h. Luciferase activity of R-848 without any ODN was set to 100% (without correction for medium background, i.e., background activity of medium remained at approx. 17%).
In yet a further set of experiments hTLR8-LUC-293 cells were incubated with 50 μM R-848 in the presence of increasing amounts of different dinucleotides (GT, ODN 603; TG, ODN 688; GG, ODN 689; GU, ODN 690; UG, ODN 691; AT, ODN 692; and TT, ODN 693). Luciferase was assayed after 16 h. Luciferase activity of R-848 without any ODN was set to 100% and remaining R-848-mediated NF-κB activation in the presence of dinucleotides or ODN 2088 was calculated. Medium background was 17% in this set of experiments.
hTLR-LUC-293 cells (expressing the respective humanTLR7, TLR8, or TLR9) were incubated with constant amounts of TLR-agonist (for hTLR7: 2 μM R-848, for hTLR8: 50 μM R-848, and for hTLR9: 0.156 μM CpG ODN 2006) and increasing amounts of TLR-antagonist. […] To compare data for different TLRs, percent remaining activity of agonist was plotted against the log of molar ratio of antagonist to agonist (e.g., for hTLR8: 50 μM R-848 and 5 μM ODN, the plotted ratio is 10^−1). Used ODN concentrations were: for hTLR7 and hTLR8, 5 μM, 0.5 μM, 0.05 μM, and 0.005 μM, and for hTLR9, 2.5 μM, 0.156 μM, 0.0098 μM and 0.00061 μM.

human TLR9 = biological target: T2, human TLR9 (Homo sapiens, UniProt Q9NR96); assay: Inhibition of CpG ODN 2006-mediated NF-κB-luciferase activation in hTLR9-LUC-293 cells; conditions: for inhibitory for TLR9: general statement 'found according to the present invention', conditions not given; for Percent 2006 Activity: equimolar 0.156 μM CpG ODN 2006 and inhibitory ODN
T2 sequence (Q9NR96 26-1032): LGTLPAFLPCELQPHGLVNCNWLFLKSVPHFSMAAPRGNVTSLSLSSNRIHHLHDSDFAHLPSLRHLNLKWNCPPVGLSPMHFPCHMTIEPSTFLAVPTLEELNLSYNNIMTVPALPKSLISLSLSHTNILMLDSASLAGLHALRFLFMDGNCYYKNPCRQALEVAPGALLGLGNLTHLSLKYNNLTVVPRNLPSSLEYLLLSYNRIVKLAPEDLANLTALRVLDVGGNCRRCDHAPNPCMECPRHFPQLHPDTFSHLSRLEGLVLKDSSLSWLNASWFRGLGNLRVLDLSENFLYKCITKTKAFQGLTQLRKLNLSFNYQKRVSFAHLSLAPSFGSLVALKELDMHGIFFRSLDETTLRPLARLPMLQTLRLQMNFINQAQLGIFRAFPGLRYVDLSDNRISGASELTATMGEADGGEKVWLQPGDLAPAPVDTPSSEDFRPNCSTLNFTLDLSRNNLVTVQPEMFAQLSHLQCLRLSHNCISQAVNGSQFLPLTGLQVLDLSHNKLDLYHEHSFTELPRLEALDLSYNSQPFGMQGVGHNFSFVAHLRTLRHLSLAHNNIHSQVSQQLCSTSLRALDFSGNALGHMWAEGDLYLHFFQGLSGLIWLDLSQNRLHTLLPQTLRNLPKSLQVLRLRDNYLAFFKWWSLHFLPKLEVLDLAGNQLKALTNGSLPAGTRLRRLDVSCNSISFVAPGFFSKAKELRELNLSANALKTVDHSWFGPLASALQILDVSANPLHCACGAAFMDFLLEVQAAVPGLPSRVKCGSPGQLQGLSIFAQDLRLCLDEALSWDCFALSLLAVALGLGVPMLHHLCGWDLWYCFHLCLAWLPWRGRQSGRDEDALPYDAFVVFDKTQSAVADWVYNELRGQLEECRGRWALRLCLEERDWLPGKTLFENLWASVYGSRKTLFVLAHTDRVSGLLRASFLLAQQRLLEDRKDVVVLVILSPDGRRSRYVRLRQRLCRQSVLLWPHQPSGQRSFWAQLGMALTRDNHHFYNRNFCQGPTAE

[1] = Table 2 (5′ CC replaced by other dinucleotides)

Sequence | inhibition of IFN-α production in human PBMC, in words (human PBMC) | inhibitory for TLR8 (human TLR8) | inhibitory for TLR9 (human TLR9) | Percent 2006 Activity (human TLR9; Table 1 (length b / Spacer 18 variants)) | Percent 2006 Activity (human TLR9; [1])
CCTTGTTGGG (DNA, backbone and methylation of C not given here) [ODN 223] | inhibited |  |  |  | 
NNNNNNNNNNNNNGT [ODN 467] | not |  |  |  | 
TCCTGGAGGGGAAGT (DNA, backbone and methylation of C not given here) [ODN 2114] |  | inhibitory | inhibitory |  | 
TCCTGTGTGTGTGTGTGTCGGGGAAGT (DNA, backbone and methylation of C not given here) [ODN 497] |  | inhibitory | inhibitory | 28% | 
TGATGGCGGGGAAGT (listed as DNA, chemistry not given here) [ODN 444] |  | inhibitory |  |  | 96%
TGCTGGCGGGGAAGT (listed as DNA, chemistry not given here) [ODN 443] |  | inhibitory |  |  | 91%
TGTTGGCGGGGAAGT (listed as DNA, chemistry not given here) [ODN 445] |  | inhibitory |  |  | 97%
